Laboratory results: patent publication USRE48461E1, “Modulation of androgen receptor expression” (Ionis Pharmaceuticals, Inc., priority 2012, dated 2021)
Oligonucleotides are written 5' to 3', each unit as a sugar letter and its base; * is a phosphorothioate linkage, no mark a phosphodiester; rarer units and linkages stand in square brackets, end groups in braces. Plain capitals give the bases only. e = 2'-O-(2-methoxyethyl) (MOE); k = constrained ethyl (cEt); [5mC] = 5-methylcytosine; d = 2'-deoxy (DNA)

Key:
AR mRNA [1] = experiment: Antisense inhibition of human AR in HuVEC cells, single concentration (electroporation, qRT-PCR RTS3559); type: cell-based; settings: ~24 h
Outline: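 HuVEC cells electroporated with antisense oligonucleotides at a single concentration. AR mRNA quantified by qRT-PCR using human primer-probe set RTS3559 and normalised to total RNA content by RIBOGREEN.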

AR mRNA [2] = experiment: Dose-dependent antisense inhibition of human AR in HuVEC cells (electroporation, qRT-PCR RTS3559, IC50); type: cell-based; settings: HuVEC
Outline: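 HuVEC cells dosed with antisense oligonucleotides by electroporation and treated approximately 16 hours. AR mRNA quantified by real-time qPCR with primer probe set RTS3559 and normalised to total RNA by RIBOGREEN; IC50 from dose-response.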

[3] = Table 29, electroporation, approximately 16 hours

Row | Substance | % inhibition (AR mRNA [1]; 1,000 nM ASO, Table 13) | percent inhibition of AR (AR mRNA [2]; 31.25 nM, ~16 h, Table 14) | percent inhibition of AR (AR mRNA [2]; 62.5 nM, ~16 h, Table 14) | percent inhibition of AR (AR mRNA [2]; 125.0 nM, ~16 h, Table 14) | percent inhibition of AR (AR mRNA [2]; 500.0 nM, ~16 h, Table 14) | percent inhibition of AR (AR mRNA [2]; 1000.0 nM, ~16 h, Table 14) | IC50 (AR mRNA [2]; ~16 h, Table 14) | % inhibition (AR mRNA [1]; 500 nM ASO, Table 16) | percent inhibition of AR, 46.9 nM (AR mRNA [2]; [3]) | percent inhibition of AR, 187.5 nM (AR mRNA [2]; [3]) | percent inhibition of AR, 750.0 nM (AR mRNA [2]; [3]) | percent inhibition of AR, 3000.0 nM (AR mRNA [2]; [3]) | IC50 (AR mRNA [2]; [3]) | % inhibition (AR mRNA [1]; 500 nM ASO, Table 17)
1 | 569238 (antisense eG*kT*kT*kG*dA*dT*dT*dT*dA*dA*dT*kG*kG*kT*eT*eG) [compound 569238] | 51% | 4% | 32% | 33% | 71% | 88% | 202 nM |  |  |  |  |  |  | 
2 | 583542 (antisense kA*k[5mC]*kA*dG*d[5mC]*dA*d[5mC]*dT*dG*dG*dA*dG*d[5mC]*kG*kG*k[5mC]) [compound 583542] |  |  |  |  |  |  |  | 45% | 9% | 28% | 47% | 66% | 900 nM | 
3 | 583556 (antisense kA*kA*k[5mC]*dT*dT*d[5mC]*dA*d[5mC]*d[5mC]*dG*dA*dA*dG*kA*kG*kG) [compound 583556] |  |  |  |  |  |  |  | 43% | 19% | 47% | 68% | 66% | 340 nM | 
4 | 583559 (antisense kA*kG*kT*d[5mC]*dT*dT*dT*dA*dG*d[5mC]*dA*dG*d[5mC]*kT*kT*kT) [compound 583559] |  |  |  |  |  |  |  | 52% | 30% | 49% | 63% | 80% | 220 nM | 
5 | 583564 (antisense kG*k[5mC]*kT*dT*d[5mC]*d[5mC]*dT*d[5mC]*d[5mC]*dG*dA*dG*dT*k[5mC]*kT*kT) [compound 583564] |  |  |  |  |  |  |  | 45% | 16% | 33% | 55% | 74% | 520 nM | 
6 | 583566 (antisense k[5mC]*k[5mC]*kT*dT*dG*d[5mC]*dT*dT*d[5mC]*d[5mC]*dT*d[5mC]*d[5mC]*kG*kA*kG) [compound 583566] |  |  |  |  |  |  |  | 47% | 0% | 28% | 50% | 74% | 730 nM | 
7 | 583567 (antisense kG*k[5mC]*kA*d[5mC]*dT*dT*dT*d[5mC]*d[5mC]*dT*dT*dG*d[5mC]*kT*kT*k[5mC]) [compound 583567] |  |  |  |  |  |  |  | 52% | 17% | 34% | 60% | 79% | 430 nM | 
8 | 583571 (antisense kT*k[5mC]*kA*dG*dT*d[5mC]*d[5mC]*dT*dA*d[5mC]*d[5mC]*dA*dG*kG*k[5mC]*kA) [compound 583571] |  |  |  |  |  |  |  | 43% | 18% | 36% | 53% | 59% | 800 nM | 
9 | 583583 (antisense kG*kA*k[5mC]*dT*dG*dA*dG*dG*d[5mC]*dA*dG*d[5mC]*dT*kG*k[5mC]*kG) [compound 583583] |  |  |  |  |  |  |  | 45% | 21% | 31% | 49% | 64% | 790 nM | 
10 | 583584 (antisense k[5mC]*k[5mC]*kG*dA*d[5mC]*dT*dG*dA*dG*dG*d[5mC]*dA*dG*k[5mC]*kT*kG) [compound 583584] |  |  |  |  |  |  |  | 44% | 24% | 44% | 52% | 73% | 410 nM | 
11 | 583608 (antisense kG*k[5mC]*kT*dA*dG*d[5mC]*dT*d[5mC]*dG*d[5mC]*d[5mC]*d[5mC]*dG*k[5mC]*kT*k[5mC]) [compound 583608] |  |  |  |  |  |  |  |  | 12% | 46% | 67% | 76% | 350 nM | 51%
12 | 583609 (antisense k[5mC]*kA*kG*d[5mC]*dT*dA*dG*d[5mC]*dT*d[5mC]*dG*d[5mC]*d[5mC]*k[5mC]*kG*k[5mC]) [compound 583609] |  |  |  |  |  |  |  |  | 16% | 48% | 63% | 73% | 360 nM | 51%
